Measurements taken from patent US12595230B2, “Substituted 6,7-dihydro-5H-benzo[7]annulene compounds and their derivatives, processes for their preparation and therapeutic uses thereof” (Sanofi, priority 2020, dated 2026).

Target: T1, ERα (Homo sapiens, UniProt P03372)
T1 construct: host or cells: MCF7
T1 sequence (P03372 1-595): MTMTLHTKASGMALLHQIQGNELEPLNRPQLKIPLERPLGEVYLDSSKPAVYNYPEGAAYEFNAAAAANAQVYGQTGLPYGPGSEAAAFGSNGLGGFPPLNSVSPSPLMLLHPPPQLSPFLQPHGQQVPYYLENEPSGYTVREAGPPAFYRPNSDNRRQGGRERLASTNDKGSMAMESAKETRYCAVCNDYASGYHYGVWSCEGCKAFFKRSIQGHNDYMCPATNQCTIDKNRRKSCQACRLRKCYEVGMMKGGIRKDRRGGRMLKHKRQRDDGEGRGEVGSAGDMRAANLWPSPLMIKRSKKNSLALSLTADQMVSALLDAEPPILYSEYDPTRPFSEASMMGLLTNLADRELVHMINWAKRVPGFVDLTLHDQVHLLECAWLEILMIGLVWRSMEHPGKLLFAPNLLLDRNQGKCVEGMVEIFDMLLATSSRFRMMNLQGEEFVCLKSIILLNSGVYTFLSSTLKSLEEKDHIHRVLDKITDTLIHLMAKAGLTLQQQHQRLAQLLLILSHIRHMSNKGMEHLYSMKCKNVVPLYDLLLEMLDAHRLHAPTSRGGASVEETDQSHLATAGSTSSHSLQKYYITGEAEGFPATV
Assay: Estrogen receptor degradation activity: breast cancer cell ERα in cell western assay (MCF7 cells)
Assay type: cell-based
Settings: for % Degradation At 0.3 μM: 4 hours, relative to fulvestrant 0.1 μM positive control; for DC50: read-out: Degradation IC50
Protocol: Test: Estrogen Receptor Degradation Activity Said test involves measuring the in vitro degradation activity of the compounds of the Table 1a. The measurements of the degradation activities were made using a breast cancer cell ERα in cell western assay as described hereunder. MCF7 cells (ATCC) were seeded in 384 wells microplate (collagen coated) at a concentration of 10000 cells/30 μL per well in red phenol free MEM alpha medium (invitrogen) containing 5% charcoal dextran striped FBS. The following day, 9 points serial 1:5 dilution of each compound was added to the cells in 2.5p L at final concentrations ranging from 0.3-0.0000018 μM (in table 2), or 0.1 μM for fulvestrant (using as positive control). At 4 hours post compound addition the cells were fixed by adding 25 μL of formalin (final concentration 5% formalin containing 0.1% triton) for 10 minutes at room temperature and then washed twice with PBS. Then, 50 μL of LI-COR blocking buffer containing 0.1% Triton was added to plate for 30 minutes at room temperature. LI-COR blocking buffer was removed and cells were incubated overnight at cold room with 50 μL anti-ER rabbit monoclonal antibody (Thermo scientific MA1-39540) diluted at 1:1000 in LI-COR blocking buffer containing 0.1% tween-20. Wells which were treated with blocking buffer but no antibody were used as background control. Wells were washed twice with PBS (0.1% tween-20) and incubated at 37° C. for 60 minutes in LI-COR (0.1% tween-20) containing goat anti-rabbit antibody Alexa 488 (1:1000) and Syto-64 a DNA dye (2 μM final concentration). Cells were then washed 3 times in PBS and scanned in ACUMEN explorer (TTP-Labtech). Integrated intensities in the green fluorescence and red fluorescence were measured to determine the levels of ERα and DNA respectively. The degradation activity with respect to estrogen receptors in this test is given by the concentration which degrades 50% of the estrogen receptor (or IC50) in nM. […] DMSO−fulvestrant)).

[1] = 4 hours post compound addition, concentration which degrades 50% of the estrogen receptor

| Compound | % Degradation At 0.3 μM [%] | DC50 [1] [nM] | IC50 [1] [nM] |
| --- | --- | --- | --- |
| O=C(O)c1ccc2c(c1)CCCC(c1ccc(Cl)cc1Cl)=C2c1ccc(CC2(F)CN(CCCF)C2)cc1 [Example 46, 8-(2,4-dichlorophenyl)-9-(4-((3-fluoro-1-(3-fluoropropyl)azetidin-3-yl)methyl)phenyl)-6,7-dihydro-5H-benzo[7]annulene-3-carboxylic acid] | 88 | 0.6 | – |
| O=C(O)c1c(F)cc2c(c1F)CCCC(c1ccc(Cl)cc1Cl)=C2c1ccc(CC2CN(CCCF)C2)cc1 [Example 225, 8-(2,4-dichlorophenyl)-2,4-difluoro-9-(4-((1-(3-fluoropropyl)azetidin-3-yl)methyl)phenyl)-6,7-dihydro-5H-benzo[7]annulene-3-carboxylic acid] | 82 | 6.6 | – |
| CC(C)C1CCc2cc(C(=O)O)ccc2C(c2ccc(CC3CN(CCCF)C3)cc2)=C1c1ccc(Cl)cc1Cl (single isomer, unassigned) [Example 321, 8-(2,4-dichlorophenyl)-9-(4-((1-(3-fluoropropyl)azetidin-3-yl)methyl)phenyl)-7-isopropyl-6,7-dihydro-5H-benzo[7]annulene-3-carboxylic acid] | 88 | 0.5 | – |
| O=C(O)c1ccc2c(c1)CCCC(c1ccc(F)cc1C(F)(F)F)=C2c1ccc(CC2CN(CCC(F)(F)F)C2)cc1 [Example 258, 8-(4-fluoro-2-(trifluoromethyl)phenyl)-9-(4-((1-(3,3,3-trifluoropropyl)azetidin-3-yl)methyl)phenyl)-6,7-dihydro-5H-benzo[7]annulene-3-carboxylic acid] | 87 | 0.8 | – |
| Cl.O=C(O)c1ccc2c(c1)CCCC(c1ccccc1)=C2c1ccc(CC2CN(CCCF)C2)cc1 [Example 1, 9-(4-((1-(3-Fluoropropyl)azetidin-3-yl)methyl)phenyl)-8-phenyl-6,7-dihydro-5H-benzo[7]annulene-3-carboxylic Acid Hydrochloride] | 83 | 0.4 | – |
| O=C(O)c1ccc2c(c1)CCCC(c1ccc(F)c(CC(F)(F)F)c1)=C2c1ccc(CC2CN(CCCF)C2)cc1 [Example 290, 8-(4-fluoro-3-(2,2,2-trifluoroethyl)phenyl)-9-(4-((1-(3-fluoropropyl)azetidin-3-yl)methyl)phenyl)-6,7-dihydro-5H-benzo[7]annulene-3-carboxylic acid] | 84 | 0.8 | – |
| Cc1c(C2=C(c3ccc(CC4CN(CCC(F)(F)F)C4)cc3)c3ccc(C(=O)O)cc3CCC2)cccc1C(F)(F)F [Example 256, 8-(2-methyl-3-(trifluoromethyl)phenyl)-9-(4-((1-(3,3,3-trifluoropropyl)azetidin-3-yl)methyl)phenyl)-6,7-dihydro-5H-benzo[7]annulene-3-carboxylic acid] | 82 | 1 | – |
| CC(O)(c1ccc(C2=C(c3ccc(Cl)cc3Cl)CCCc3cc(C(=O)O)ccc32)cc1)C1CN(CCCF)C1.Cl (single isomer, unassigned; isomer 1) [Example 235, 8-(2,4-dichlorophenyl)-9-(4-(1-(1-(3-fluoropropyl)azetidin-3-yl)-1-hydroxyethyl)phenyl)-6,7-dihydro-5H-benzo[7]annulene-3-carboxylic acid, Hydrochloride Isomer 1] | 62 | 4.5 | – |
| O=C(O)c1ccc2c(c1)CCCC(C1CC3CCC(C3)C1)=C2c1ccc(CC2CN(CCCF)C2)cc1 (centres unmarked) [Example 316, 8-(bicyclo[3.2.1]octan-3-yl)-9-(4-((1-(3-fluoropropyl)azetidin-3-yl)methyl)phenyl)-6,7-dihydro-5H-benzo[7]annulene-3-carboxylic acid] | 81 | 1.2 | – |
| O=C(O)c1ccc2c(c1)CCCC(c1ccc(F)cc1C(F)(F)F)=C2c1ccc(CC2(F)CN(CCCF)C2)cc1 [Example 241, 9-(4-((3-fluoro-1-(3-fluoropropyl)azetidin-3-yl)methyl)phenyl)-8-(4-fluoro-2-(trifluoromethyl)phenyl)-6,7-dihydro-5H-benzo[7]annulene-3-carboxylic acid] | 92 | 3.7 | – |
| O=C(O)c1ccc2c(c1)CCCC(CC1CCC1)=C2c1ccc(CC2CN(CCCF)C2)cc1 [Example 294, 8-(cyclobutylmethyl)-9-(4-((1-(3-fluoropropyl)azetidin-3-yl)methyl)phenyl)-6,7-dihydro-5H-benzo[7]annulene-3-carboxylic acid] | 92 | – | 0.2 |
| O=C(O)c1ccc2c(c1)CCCC(C1=CC3(C1)CC(F)(F)C3)=C2c1ccc(CC2CN(CCCF)C2)cc1 [Example 50, 8-(6,6-difluorospiro[3.3]hept-1-en-2-yl)-9-(4-((1-(3-fluoropropyl)azetidin-3-yl)methyl)phenyl)-6,7-dihydro-5H-benzo[7]annulene-3-carboxylic acid] | 88 | 10.5 | – |

The remaining lines, values ahead:

| % Degradation At 0.3 μM [%] | DC50 [1] [nM] | IC50 [1] [nM] | Compound |
| --- | --- | --- | --- |
| 90 | 0.4 | – | O=C(O)c1ccc2c(c1)CCCC(c1ccc(Cl)cc1Cl)=C2c1ccc(C(F)C2CN(CCCF)C2)cc1 (single isomer, unassigned) [Example 43, 8-(2,4-dichlorophenyl)-9-(4-(fluoro(1-(3-fluoropropyl)azetidin-3-yl)methyl)phenyl)-6,7-dihydro-5H-benzo[7]annulene-3-carboxylic acid] |
| 92 | 0.3 | – | O=C(O)c1ccc2c(c1)CCCC(c1cccc(F)c1F)=C2c1ccc(CC2CN(CCCF)C2)cc1 [Example 22, 8-(2,3-difluorophenyl)-9-(4-((1-(3-fluoropropyl)azetidin-3-yl)methyl)phenyl)-6,7-dihydro-5H-benzo[7]annulene-3-carboxylic acid] |
| 90 | 0.3 | – | Cc1cc(C(F)(F)F)ccc1C1=C(c2ccc(CC3CN(CCCF)C3)cc2)c2ccc(C(=O)O)cc2CCC1 [Example 17, 9-(4-((1-(3-fluoropropyl)azetidin-3-yl)methyl)phenyl)-8-(2-methyl-4-(trifluoromethyl)phenyl)-6,7-dihydro-5H-benzo[7]annulene-3-carboxylic acid] |
| 87 | 0.4 | – | CC(C)CC1=C(c2ccc(CC3CN(CCCF)C3)cc2)c2ccc(C(=O)O)cc2CCC1 [Example 37, 9-(4-((1-(3-fluoropropyl)azetidin-3-yl)methyl)phenyl)-8-isobutyl-6,7-dihydro-5H-benzo[7]annulene-3-carboxylic acid] |
| 85 | 0.3 | – | CC1(C)CCC(C2=C(c3ccc(CC4CN(CCCF)C4)cc3)c3ccc(C(=O)O)cc3CCC2)CC1.Cl [Example 13, 8-(4,4-dimethylcyclohexyl)-9-(4-((1-(3-fluoropropyl)azetidin-3-yl)methyl)phenyl)-6,7-dihydro-5H-benzo[7]annulene-3-carboxylic acid] |
| 91 | 0.3 | – | CC1CCc2cc(C(=O)O)ccc2C(c2ccc(CC3CN(CCCF)C3)cc2)=C1c1ccc(F)cc1C(F)(F)F (racemic) [Example 312, 8-(4-fluoro-2-(trifluoromethyl)phenyl)-9-(4-((1-(3-fluoropropyl)azetidin-3-yl)methyl)phenyl)-7-methyl-6,7-dihydro-5H-benzo[7]annulene-3-carboxylic acid] |
| 91 | 0.3 | – | O=C(O)c1ccc2c(c1)CCCC(c1cccc(Cl)c1Cl)=C2c1ccc(CC2CN(CCCF)C2)cc1 [Example 19, 8-(2,3-dichlorophenyl)-9-(4-((1-(3-fluoropropyl)azetidin-3-yl)methyl)phenyl)-6,7-dihydro-5H-benzo[7]annulene-3-carboxylic acid] |
